Assay results: patent US11738031B2, “Compositions and methods for preventing or treating muscle conditions” (The Board of Trustees of the Leland Stanford Junior …, priority 2017, dated 2023)

Test system: Nurr1
Assay: Nurr1 expression in MuSCs (qRT-PCR, flow cytometry)
Format: cell-based, mouse
Conditions: 24 hr PGE2 treatment in culture
Description: We analyzed NURR1 levels by flow cytometry using myogenic progenitors after a 24 hr treatment of vehicle (DMSO) or PGE2 (10 ng/ml), or from MuSCs transfected with shSCR or shNurr1 (see Knockdown assays section). We collected cells by incubation with 0.5% trypsin in PBS for 2 min at 37° C. We fixed the cells using 1.6% paraformaldehyde in PBS and then permeabilized them in ice-cold methanol. We then blocked them in staining buffer (0.5% BSA in PBS) for 30 min at room temperature and stained them with a Mouse monoclonal anti-Nurr1 (Abcam, catalog #ab41917, 1:75) primary antibody or anti-mouse IgG control (Jackson ImmunoResearch Laboratories). […] We analyzed the cells on a FACS LSR II cytometer using FACSDiva software (BD Biosciences) in the Stanford Shared FACS Facility, purchased using an NIH S10 Shared Instrument Grant (S10RR027431-01).
We isolated RNA from MuSCs using the RNeasy Micro Kit (Qiagen). […] To quantify relative transcript levels, we used 2^ΔΔCt to compare treated and untreated samples and expressed the results relative to Gapdh. […] TaqMan Assays (Applied Biosystems) were used to quantify Pax7, Myogenin, Nurr1, Ptger3 and Ptger4 in samples according to the manufacturer instructions with the TaqMan Universal PCR Master Mix reagent kit (Applied Biosystems). […]

SMILES: CCCCC[C@H](O)/C=C/[C@H]1[C@H](O)CC(=O)[C@@H]1C/C=C\CCCC(=O)O [PGE2, prostaglandin E2]
- Nurr1 mRNA and protein expression: increased Nurr1 mRNA and protein expression
